According to US20140329905A1, “HISTONE DEACETYLASE 10-INHIBITOR CO-TREATMENT IN CANCER” (Deutsches Krebsforschungszentrum, priority 2011, published 2014):
Where two headings read alike, the source gives them in different places. Peptide text beside a SMILES is read from it. * marks the point of attachment. Cbz = O=C(OCc1ccccc1)*; CH2F = FC*

How the values were obtained:
BE(2)-C cells [1] = assay: Acridine orange FACS quantification of acidic lysosomes; type: cell-based, human; settings: for accumulation of acidic lysosomes (red fluorescence) by a panel of HDAC inhibitors: FIG. 1B, each inhibitor at its applied concentration (Table 1)
Experimental: For quantification of acidic lysosomes, the amount of green respectively red fluorescence was determined, since the acidification of (auto-)lysosomes causes a shift from green to red fluorescence. […] Therefore, the cytoplasm and nucleolus glow bright green, whereas acidic compartments shine bright red. By comparing the mean red-to-green fluorescence ratio within different cell populations, detection and quantification of the acidic compartment is possible. Cells were stained with phenol red-free medium containing 1 μg/ml acridine orange (Sigma) at 37° C. for 30 min, collected and resuspended in 300 μl phenolred-free medium for FACS analysis.

Kelly cells = assay: WST-1 metabolic activity assay; type: cell-based, human; settings: NAC on day 4 and 5, measured day 6
Experimental: (§1) WST-1 Assay. Metabolic activity was determined using the colorimetric WST-1 assay kit from Roche (Mannheim, Germany) as described in the manufacturer's manual.

BE(2)-C cells [2] = assay: WST-1 metabolic activity assay; type: cell-based, human
Experimental: as §1

BE(2)-C cells [3] = assay: ROS detection with CM-H2DCFDA by flow cytometry; type: cell-based, human; settings: for effect on ROS production by HDAC10 targeting: 72 h after HDAC10 siRNA transfection
Experimental: ROS generation was quantified using CM-H2DCFDA (Molecular Probes) according to the manufacturer's instructions. Cells were incubated for 20 min with 5 μM dye and fluorescence intensity was measured with FACSCalibur and analyzed with CellQuest Pro.

[4] = test system: Neuroblastoma cells, medulloblastoma cells (BE(2)-C, Kelly, IMR32, Med8A); assay: WST-1 metabolic activity assay, tumor cells; type: cell-based, human; settings: FIG. 13E; bufexamac 30 μM 6 d, co-treated with low-dose doxorubicin 72 h before assay
Experimental: as §1

astrocytes = assay: Acridine orange FACS quantification of acidic lysosomes; type: cell-based; settings: FIG. 1D; human astrocytes, compared with neuroblastoma cells
Experimental: For quantification of acidic lysosomes, the amount of green respectively red fluorescence was determined, since the acidification of (auto-)lysosomes causes a shift from green to red fluorescence. Acridine orange accumulates in lysosomal particles and the quenching of its fluorescence correlates with the DpH across the lysosomal membrane (Moriyama, Y, Takano, T and Ohkuma, S, (1982) Acridine orange as a fluorescent probe for lysosomal proton pump. J Biochem 92: 1333-6). Therefore, the cytoplasm and nucleolus glow bright green, whereas acidic compartments shine bright red. By comparing the mean red-to-green fluorescence ratio within different cell populations, detection and quantification of the acidic compartment is possible. Cells were stained with phenol red-free medium containing 1 μg/ml acridine orange (Sigma) at 37° C. for 30 min, collected and resuspended in 300 μl phenolred-free medium for FACS analysis. The green (510-530 nm) and the red (>650 nm) fluorescent emission of living cells, stimulated with blue laser (488 nm), were measured with FACSCalibur (Becton Dickinson, San José, Calif.) and analyzed with CellQuest Pro.

HDAC10 [5] = target: T1, HDAC10 (Homo sapiens, UniProt Q969S8); settings: read-out: IC50 HDAC10 from literature; cited from earlier work
T1 construct: Reaction Biology Corporation
T1 sequence (Q969S8 1-669): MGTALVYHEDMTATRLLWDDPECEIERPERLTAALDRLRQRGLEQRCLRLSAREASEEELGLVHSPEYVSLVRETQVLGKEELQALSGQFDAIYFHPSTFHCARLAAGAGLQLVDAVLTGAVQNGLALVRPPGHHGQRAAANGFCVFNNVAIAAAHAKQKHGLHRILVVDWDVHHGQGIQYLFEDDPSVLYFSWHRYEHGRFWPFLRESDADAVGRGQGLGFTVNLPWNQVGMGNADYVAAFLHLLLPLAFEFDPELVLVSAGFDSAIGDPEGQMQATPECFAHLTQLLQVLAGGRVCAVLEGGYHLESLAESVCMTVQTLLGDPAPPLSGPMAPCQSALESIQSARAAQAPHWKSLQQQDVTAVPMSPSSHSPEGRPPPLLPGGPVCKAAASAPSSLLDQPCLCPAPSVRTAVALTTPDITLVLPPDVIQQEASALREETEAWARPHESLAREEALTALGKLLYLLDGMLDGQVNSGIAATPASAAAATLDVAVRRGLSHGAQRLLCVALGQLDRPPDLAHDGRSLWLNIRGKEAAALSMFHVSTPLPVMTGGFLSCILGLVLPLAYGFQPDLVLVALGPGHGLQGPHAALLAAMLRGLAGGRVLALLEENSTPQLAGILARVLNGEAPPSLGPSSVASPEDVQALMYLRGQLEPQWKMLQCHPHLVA

BE(2)-C cells [6] = assay: Caspase-3-like protease (DEVD-ase) activity assay; type: cell-based, human; settings: 6 d after HDAC10 siRNA; z-VAD 20 μM, 3-MA 2 mM
Experimental: Caspase-3-like protease activity assay. Caspase-3-like protease activity was measured with the Caspase-3 Fluorometric Assay (BioVision) according to the manufacturer's protocol modified as described previously (Oehme et al. (2006), op. cit.). For cell death detection adherent as well as floating cells were collected.

BE(2)-C cells [7] = assay: Western blot of p62 protein levels (autophagic flux); type: cell-based, human; settings: FIG. 13C; high-dose doxorubicin 0.5 μg/ml, 48 h
Experimental: Western blot analysis was performed as described previously (Oehme et al. (2009), op. cit.). The following antibodies were used: anti-HDAC10 (Sigma), anti-LC3 (Sigma), anti-HDAC6 (Cell Signaling), anti-p62/SQSTM1 (MLB), anti-Hsc70 (Santa Cruz), anti-FLAG-M2 (Sigma) anti-GAPDH (Millipore), anti-Ac-Lysine (rabbit, Cell Signaling) and anti-β-Actin (clone AC-15, Sigma). β-Actin expression served as loading control. Ratios were calculated with the Bio-1D (Version 12.10a) Software. Protein extracts from primary neuroblastoma tumors from patients with the following characteristics were used: NB#1: […], stage 1, MYCN single copy. NB#2: […], stage 1, MYCN single copy. NB#3: […], stage 4, MYCN single copy. NB#4: […], stage 4, MYCN single copy.

BE(2)-C cells [8] = assay: Cell death by trypan blue staining; type: cell-based, human; settings: FIG. 13A; 0.01, 0.05, 0.1 μg/ml; 24, 48, 72 h; among BE(2)-C, Kelly, IMR32
Experimental: (§2) Viability assay. Trypsinized cells were pooled with corresponding supernatant, centrifuged and resuspended in 1.5 ml cell culture media. Cell viability was measured by automated trypan blue staining with Vi-Cell XR Cell Viability Analyzer from Beckman Coulter (Krefeld, Germany).

IMR32 cells = assay: Cell death by trypan blue staining; type: cell-based, human; settings: FIG. 13A, 0.01, 0.05, 0.1 μg/ml, 24, 48, 72 h, among BE(2)-C, Kelly
Experimental: as §2

HDAC10 [9] = target: T1, HDAC10; assay: In vitro HDAC10 activity assay by Reaction Biology Corporation; type: biochemical; settings: read-out: IC50 HDAC10 from RBC
Description: The inhibitory activity of compounds toward HDAC10 was investigated by Reaction Biology Corporation (Malvern, Pa., USA).

Structure (SMILES): O=C(CCCCCCC(=O)Nc1ccccc1)NO [Vorinostat (SAHA), N-hydroxy-N′-phenyl-octanediamide]
- accumulation of acidic lysosomes (red fluorescence) by a panel of HDAC inhibitors (BE(2)-C cells [1]; BE(2)-C): significant increase in red fluorescence

Structure (SMILES): CC(=O)N[C@@H](CS)C(=O)O [NAC]
- viability (metabolic activity) upon HDAC10 knockdown (Kelly cells): restored viability of NB cells
- viability (metabolic activity) upon HDAC10 knockdown (BE(2)-C cells [2]; BE(2)-C, NAC on day 4 and 5, measured day 6): restored viability of NB cells
- effect on ROS production by HDAC10 targeting (BE(2)-C cells [3]): inhibited

Structure (SMILES): CCCCOc1ccc(CC(=O)NO)cc1 [Bufexamac, 2-(4-butoxyphenyl)-N-hydroxyacetamide]
- accumulation of acidic lysosomes (red fluorescence) by a panel of HDAC inhibitors (BE(2)-C cells [1]; BE(2)-C): significant increase in red fluorescence
- effect of bufexamac in NB cells compared to the knockdown of HDAC10 expression (BE(2)-C cells [2]; BE(2)C cells): rather low
- metabolic activity (WST-1) (BE(2)-C cells [2]; FIG. 9E, bufexamac 100 μM 3 days, co-treated with doxorubicin 0.1 μg/ml 24 h before assay): strongly reduced metabolic activity
- metabolic activity (WST-1) [4]: significantly decreased metabolic activity
- shift to red fluorescence (acidic lysosomes) (astrocytes): very moderate shift to red fluorescence
- IC50 (HDAC10 [5]): 12.3 µM

Structure (SMILES): O=C(CCCCCCC(=O)Nc1ccc([C@H]2O[C@@H](CSc3nc(-c4ccccc4)c(-c4ccccc4)o3)C[C@@H](c3ccc(CO)cc3)O2)cc1)NO [Tubacin]
- accumulation of acidic lysosomes (red fluorescence) by a panel of HDAC inhibitors (BE(2)-C cells [1]; BE(2)-C): did not increase the amount of red fluorescent cells

Structure (SMILES): CC(NC(=O)C(NC(=O)OCc1ccccc1)C(C)C)C(=O)NC(CC(=O)O)C(=O)CF (stereo not drawn) [zVAD] (Cbz-Val-Ala-Asp-CH2F; configuration not given here)
- viability (metabolic activity) upon HDAC10 knockdown (BE(2)-C cells [2]; 6 d post-transfection, z-VAD 20 μM on day 4 and 5): partly restored viability
- effect on HDAC10-knockdown mediated apoptosis (caspase-3 like activity) (BE(2)-C cells [6]): abolished HDAC10-knockdown mediated induction of apoptosis

Structure (SMILES): COc1cccc2c1C(=O)c1c(O)c3c(c(O)c1C2=O)C[C@@](O)(C(=O)CO)C[C@@H]3O[C@H]1C[C@H](N)[C@H](O)[C@H](C)O1 [doxorubicin]
- autophagic flux, measurable by p62 degradation (BE(2)-C cells [7]): enhanced autophagic flux
- sensitivity towards doxorubicin treatment (cell death, % trypan blue positive) (BE(2)-C cells [8]): highest resistance
- sensitivity towards doxorubicin treatment (cell death, % trypan blue positive) (IMR32 cells): highest sensitivity

Structure (SMILES): CN1C(=O)C(Cc2c[nH]c3ccccc23)NC1=S (centres unmarked) [necrostatin]
- viability (metabolic activity) upon HDAC10 knockdown (BE(2)-C cells [2]; 6 d post-transfection, necrostatin 50 μM in combination with z-VAD 20 μM): completely rescue

Structure (SMILES): CC(C=CC(=O)NO)=CC(C)C(=O)c1ccc(N(C)C)cc1 (centres unmarked) [TSA, 7-[4-(dimethylamino)phenyl]-N-hydroxy-4,6-dimethyl-7-oxohepta-2,4-dienamide]
- accumulation of acidic lysosomes (red fluorescence) by a panel of HDAC inhibitors (BE(2)-C cells [1]; BE(2)-C): significant increase in red fluorescence
- ROS generation (BE(2)-C cells [3]; TSA 75 nM, 24 h): TSA-induced ROS generation

Structure (SMILES): Cc1[nH]c2ccccc2c1CCNCc1ccc(/C=C/C(=O)NO)cc1 [Panobinostat (LBH589), (2E)-N-hydroxy-3-[4-({[2-(2-methyl-1H-indol-3-yl)ethyl]amino}methyl)phenyl]acrylamide]
- accumulation of acidic lysosomes (red fluorescence) by a panel of HDAC inhibitors (BE(2)-C cells [1]; BE(2)-C): significant increase in red fluorescence

Structure (SMILES): CO/C1=C\C(C)=C\[C@@H](C)[C@@H](O)[C@@H](C)C/C(C)=C/C=C/[C@H](OC)[C@@H]([C@@H](C)[C@@H](O)[C@H](C)[C@@]2(O)C[C@@H](O)[C@H](C)[C@@H](C(C)C)O2)OC1=O [Bafilomycin A1]
- effect on TSA-induced shift to red fluorescence (BE(2)-C cells [1]; FIG. 2, co-treatment Baf.A 10 nM with TSA 75 nM): inhibited the TSA-induced shift to red fluorescence
- effect on lysosome acidification induced by HDAC10 knockdown (BE(2)-C cells [1]; FIG. 4A, Baf. A 10 nM, HDAC10 siRNA): blocked lysosome acidification induced by HDAC10 knockdown

Structure (SMILES): CCCC(CCC)C(=O)O [VPA, valproic acid]
- accumulation of acidic lysosomes (red fluorescence) by a panel of HDAC inhibitors (BE(2)-C cells [1]; BE(2)-C): did not increase the amount of red fluorescent cells
- IC50 (HDAC10 [9]): > 10000 µM

Structure (SMILES): Cn1cnc(=N)c2[nH]cnc21 [3-MA]
- effect on HDAC10-knockdown mediated apoptosis (caspase-3 like activity) (BE(2)-C cells [6]): did not affect the induction of cell death upon targeting of HDAC10

Structure (SMILES): CC(=O)N(O)CCCCCNC(=O)CCC(=O)N(O)CCCCCNC(=O)CCC(=O)N(O)CCCCCN [DFO]
- effect on ROS production by HDAC10 targeting (BE(2)-C cells [3]): inhibited

Structure (SMILES): CN(C)Cc1c(C(=O)NCCOc2ccc(C(=O)NO)cc2)oc2ccccc12 [PCI-24781, 3-(dimethylaminomethyl)-N-[2-[4-(hydroxycarbamoyl)-phenoxy]ethyl]-1-benzofuran-2-carboxamide]
- accumulation of acidic lysosomes (red fluorescence) by a panel of HDAC inhibitors (BE(2)-C cells [1]; BE(2)-C): significant increase in red fluorescence

Structure (SMILES): COc1ccc(Cn2ccc3ccc(C(=O)NO)cc32)cc1 [PCI-34051]
- accumulation of acidic lysosomes (red fluorescence) by a panel of HDAC inhibitors (BE(2)-C cells [1]; BE(2)-C): did not

Structure (SMILES): CCN(CC)CCCC(C)Nc1ccnc2cc(Cl)ccc12 (centres unmarked) [Chloroquine]
- induction of acidic lysosomes and late endosomes (BE(2)-C cells [1]; FIG. 2, FIG. 5C, BE(2)-C, chloroquine 25 μM, rapamycin 100 nM): served as positive controls for the induction of acidic lysosomes and late endosomes
